The source of these data is PubChem BioAssay AID743267 (Broad Institute, 2014).

By AC50 is commonly meant the concentration giving half of the maximal activity seen.

Structures are written as SMILES.

The test has as its system human bronchial epithelial cells, CFTR corrector, plate reader. The experiment in a line: CFTR ΔF508 corrector activity in bronchial cells, dose response, human bronchial epithelial cells, plate reader, cherry-pick, two tests (AID 743267). The settings on record: measured here: test 2 replicate run.

Turning to `COc1cccc2c1C(=O)c1c(O)c3c(c(O)c1C2=O)C[C@@](O)(C(C)=O)C[C@@H]3O[C@H]1C[C@H](N)[C@H](O)[C@H](C)O1`, the AC50 came to 7.44 µM.
